According to ChEMBL document CHEMBL1833820, “Benzofurans from Styrax agrestis as acetylcholinesterase inhibitors: structure-activity relationships and molecular modeling studies” (J Nat Prod, 2011):
The source made the active and inactive calls. The rule behind the calls is not given here.

Key:
[1] = biological target: T1, Acetylcholinesterase (Homo sapiens, UniProt P22303); assay: Inhibition of human serum BChE using butyrylthiocholine iodide as substrate by spectrophotometric method
[2] = biological target: T1, Acetylcholinesterase
Description: (§1) Inhibition of human recombinant AChE using acetylthiocholine iodide as substrate by spectrophotometric method

[3] = biological target: Acetylcholinesterase (Electrophorus electricus, UniProt O42275)
Description: (§2) Inhibition of electric eel AChE using acetylthiocholine iodide as substrate by spectrophotometric method

[4] = biological target: Acetylcholinesterase (Electrophorus electricus) (UniProt O42275)
Description: as §2

[5] = biological target: T1, Acetylcholinesterase; remark: listed apart in the source
Description: as §1

Sequence of Acetylcholinesterase (Electrophorus electricus, UniProt O42275) (O42275 whole entry): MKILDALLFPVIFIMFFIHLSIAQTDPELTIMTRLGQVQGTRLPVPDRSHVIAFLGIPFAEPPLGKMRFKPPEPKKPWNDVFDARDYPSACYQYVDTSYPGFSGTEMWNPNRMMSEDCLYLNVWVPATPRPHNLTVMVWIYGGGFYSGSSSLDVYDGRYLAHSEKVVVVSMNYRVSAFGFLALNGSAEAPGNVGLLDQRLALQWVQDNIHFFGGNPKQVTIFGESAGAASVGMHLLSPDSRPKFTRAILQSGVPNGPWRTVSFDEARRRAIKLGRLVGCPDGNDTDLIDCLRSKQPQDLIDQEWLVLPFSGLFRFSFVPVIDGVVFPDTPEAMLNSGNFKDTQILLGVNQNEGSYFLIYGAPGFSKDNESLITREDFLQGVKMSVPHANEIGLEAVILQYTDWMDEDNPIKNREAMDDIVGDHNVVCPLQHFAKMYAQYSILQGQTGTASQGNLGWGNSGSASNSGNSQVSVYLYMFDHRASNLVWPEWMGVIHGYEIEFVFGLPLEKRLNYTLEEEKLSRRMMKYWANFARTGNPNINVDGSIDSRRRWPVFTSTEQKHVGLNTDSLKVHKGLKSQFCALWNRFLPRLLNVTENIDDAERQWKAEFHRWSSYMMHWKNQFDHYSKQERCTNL
T1 sequence (P22303 whole entry): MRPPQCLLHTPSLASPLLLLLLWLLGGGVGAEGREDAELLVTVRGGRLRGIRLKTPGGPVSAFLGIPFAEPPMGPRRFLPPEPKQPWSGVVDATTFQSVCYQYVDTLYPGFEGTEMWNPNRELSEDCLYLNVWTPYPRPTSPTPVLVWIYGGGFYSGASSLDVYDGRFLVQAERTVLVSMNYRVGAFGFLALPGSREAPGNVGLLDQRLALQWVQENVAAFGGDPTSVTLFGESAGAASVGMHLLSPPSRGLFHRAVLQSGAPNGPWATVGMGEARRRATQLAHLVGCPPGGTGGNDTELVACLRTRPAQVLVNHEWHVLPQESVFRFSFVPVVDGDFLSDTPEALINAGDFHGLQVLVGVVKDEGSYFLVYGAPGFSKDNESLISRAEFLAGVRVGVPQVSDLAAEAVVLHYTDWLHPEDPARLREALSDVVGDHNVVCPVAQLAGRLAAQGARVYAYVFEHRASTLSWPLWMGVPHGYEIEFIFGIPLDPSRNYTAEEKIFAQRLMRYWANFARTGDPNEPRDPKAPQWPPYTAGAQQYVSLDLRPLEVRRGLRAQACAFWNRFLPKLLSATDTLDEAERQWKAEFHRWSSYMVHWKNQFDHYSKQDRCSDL
Sequence of Acetylcholinesterase (Electrophorus electricus) (O42275 24-633 limits assumed): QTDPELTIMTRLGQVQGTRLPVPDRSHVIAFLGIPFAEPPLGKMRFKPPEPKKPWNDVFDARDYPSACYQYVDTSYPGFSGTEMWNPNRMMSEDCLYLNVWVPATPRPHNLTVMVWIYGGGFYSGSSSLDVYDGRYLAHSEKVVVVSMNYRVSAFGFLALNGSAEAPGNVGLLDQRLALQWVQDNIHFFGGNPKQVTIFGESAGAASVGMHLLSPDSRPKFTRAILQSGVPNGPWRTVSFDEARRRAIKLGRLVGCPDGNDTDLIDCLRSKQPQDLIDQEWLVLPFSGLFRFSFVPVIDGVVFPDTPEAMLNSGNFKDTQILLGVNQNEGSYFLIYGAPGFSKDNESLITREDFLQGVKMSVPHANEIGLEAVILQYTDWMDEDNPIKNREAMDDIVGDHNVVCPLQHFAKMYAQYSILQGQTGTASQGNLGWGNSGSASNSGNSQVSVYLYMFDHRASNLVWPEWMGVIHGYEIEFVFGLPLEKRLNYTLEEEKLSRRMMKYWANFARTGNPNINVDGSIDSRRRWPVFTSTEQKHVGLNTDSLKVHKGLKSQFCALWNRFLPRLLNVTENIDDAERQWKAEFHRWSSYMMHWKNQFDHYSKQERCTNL

| SMILES | inhibition [1] | IC50 [2] [nM] | IC50 [3] [nM] | inhibition [4] | inhibition [5] |
| --- | --- | --- | --- | --- | --- |
| CCCCC/C=C\C/C=C\CCCCCCCC(=O)OCCCc1cc(OC)c2oc(-c3ccc4c(c3)OCO4)cc2c1 | inactive | 1700 | 1400 |  |  |
| CCCCC/C=C\C/C=C\CCCCCCCC(=O)OCCCc1ccc2oc(-c3ccc4c(c3)OCO4)cc2c1 | inactive | 2700 | 2000 |  |  |
| OCCCc1ccc2oc(-c3ccc4c(c3)OCO4)cc2c1 | inactive |  |  | inactive | inactive |
| CCCC(=O)OCCCc1cc(OC)c2oc(-c3ccc4c(c3)OCO4)cc2c1 | inactive |  |  |  |  |
| COc1cc(CCCOC(=O)Nc2ccccc2)cc2cc(-c3ccc4c(c3)OCO4)oc12 | inactive | 4500 | 3300 |  |  |
| CCCCCCCC/C=C\CCCCCCCC(=O)OCCCc1ccc2oc(-c3ccc4c(c3)OCO4)cc2c1 | inactive | 3100 | 2200 |  |  |
| COc1cc(CCCO)cc2cc(-c3ccc4c(c3)OCO4)oc12 | inactive |  |  | inactive | inactive |
| CCCCCCCC/C=C\CCCCCCCC(=O)OCCCc1cc(OC)c2oc(-c3ccc4c(c3)OCO4)cc2c1 [EGONOL OLEATE] | inactive | 1800 | 1400 |  |  |
| COc1cc(CCCOC(=O)C(C)C)cc2cc(-c3ccc4c(c3)OCO4)oc12 | inactive |  |  |  |  |
| COc1cc(CCCOC(=O)NC(C)(C)C)cc2cc(-c3ccc4c(c3)OCO4)oc12 | inactive |  |  |  |  |
| COc1cc(CCC(=O)O)cc2cc(-c3ccc4c(c3)OCO4)oc12 | inactive |  |  | inactive | inactive |
| CC[C@H](C)C(=O)OCCCc1ccc2oc(-c3ccc4c(c3)OCO4)cc2c1 | inactive | 6100 | 5500 |  |  |
| CC[C@H](C)C(=O)OCCCc1cc(OC)c2oc(-c3ccc4c(c3)OCO4)cc2c1 | inactive | 5900 | 4800 |  |  |
| COc1cc(CCC=O)cc2cc(-c3ccc4c(c3)OCO4)oc12 | inactive |  |  | inactive | inactive |
| CCC(=O)OCCCc1cc(OC)c2oc(-c3ccc4c(c3)OCO4)cc2c1 | inactive |  |  | inactive | inactive |
| O=CCCCCCCCC(=O)OCCCc1ccc2oc(-c3ccc4c(c3)OCO4)cc2c1 | inactive |  |  |  | inactive |
| CC(=O)OCCCc1ccc2oc(-c3ccc4c(c3)OCO4)cc2c1 | inactive |  |  | inactive | inactive |
| COc1cc(CCCOC(=O)CCCCCCCC=O)cc2cc(-c3ccc4c(c3)OCO4)oc12 | inactive |  |  |  | inactive |
| COc1cc(CCCOC(C)=O)cc2cc(-c3ccc4c(c3)OCO4)oc12 | inactive |  |  | inactive | inactive |
